Data on three compounds can be found in paper PMC2794939 (Biochemistry, 2009).

The IC50 is the point on the concentration scale where inhibition reaches its midpoint.

Common to all, as to type: cell-based, Influenza virus A/Udorn/72
In experiment [1] the target is A/M2-V27A (Influenza A virus, UniProt P0DOF5, V27A). The conditions noted are these: for inhibition of the mutant: 100 µM.
Experiment [2] concerns the target A/M2-V27A/L38F (Influenza A virus, UniProt P0DOF5, L38F/V27A).
Experiment [3] addresses A/M2-L26F (Influenza A virus, UniProt P0DOF5, L26F).
In experiment [4] the target is A/M2-S31N (Influenza A virus, UniProt P0DOF5, S31N).
For experiment [5], the target named is A/M2-V27G (Influenza A virus, UniProt P0DOF5, V27G).
Experiment [6] has as its target A/M2-A30T (Influenza A virus, UniProt P0DOF5, A30T).
In experiment [7] the target is A/M2-G34E (Influenza A virus, UniProt P0DOF5, G34E).

In the case of `NC12CC3CC(CC(C3)C1)C2` [Amantadine, amantadine], in experiment [1], the “inhibition of the mutant” value is recorded as “less than 10%”. Also, the “sensitivity of the double mutant channel” value in experiment [2] is listed as “not sensitive”.
`C1CCC2(CC1)CCN(C1=NCCN1)CC2` [BL-1743, 2-[3-azaspiro([5],[5])undecanol]-2-imidazoline]: the “% remaining activity after application of 100 μM compound” value is 97.4±1.8% in experiment [1]; 89.2±4.8% in experiment [3]; 100±0.67% in experiment [4]; 82.9±9.3% in experiment [5]; 102±2.3% in experiment [6]; 89.8±6.9% in experiment [7]. The half-maximal inhibitory concentration (IC50) in experiment [1], in experiment [3] and in experiment [4] was over 10 mM in each case. In addition, the “inhibition of the mutant” value in experiment [1] is “less than 10%”. Besides, the “sensitivity of the double mutant channel” value in experiment [2] is “not sensitive”.
On to `NC1CCC2(CCCCC2)CC1` [Compound 8, spiro[5.5]undecan-3-amine], for which the “% remaining activity after application of 100 μM compound” value in experiment [1] amounted to 46.6±6.6%; in experiment [3], 32.4±3.3%; in experiment [4], 99.1±0.9%; in experiment [5] it was 87.9±6.1%; in experiment [6] it was 98.1±7.0%. In experiment [4], the “inhibition of the mutant” value is given as “little inhibition”.
